Counter-ions that a name gives are not always drawn.
Assays:
CHIKV replicon = assay: microbe, parasite or virus in culture; type: cell-based, Chikungunya virus (CHIKV)

NCCCS(=O)(=O)O [Homotaurine]
CHIKV replicon % left (CHIKV replicon): 89.2%
SFV replication % left (surviving fraction, remaining percentage of SFV replication) (SFV-Rluc): 118.7%

NS(=O)(=O)c1cc2c(cc1Cl)NCNS2(=O)=O [Hydrochlorothiazide]
CHIKV replicon % left (CHIKV replicon): 70.2%
SFV replication % left (surviving fraction, remaining percentage of SFV replication) (SFV-Rluc): 121.2%

CC(=O)OCC(=O)[C@@]1(O)CC[C@H]2[C@@H]3CCC4=CC(=O)CC[C@]4(C)[C@H]3[C@@H](O)C[C@@]21C [Hydrocortisone acetate]
CHIKV replicon % left (CHIKV replicon): 72.1%
SFV replication % left (surviving fraction, remaining percentage of SFV replication) (SFV-Rluc): 116.8%

Oc1ccc(O)cc1 [Hydroquinone]
CHIKV replicon % left (CHIKV replicon): 72.9%
SFV replication % left (surviving fraction, remaining percentage of SFV replication) (SFV-Rluc): 16.9%

CCN(CCO)CCCC(C)Nc1ccnc2cc(Cl)ccc12 (centres unmarked) [Hydroxychloroquine sulfate]
CHIKV replicon % left (CHIKV replicon): 100.1%
SFV replication % left (surviving fraction, remaining percentage of SFV replication) (SFV-Rluc): 128.9%

OCCOCCN1CCN(C(c2ccccc2)c2ccc(Cl)cc2)CC1 (centres unmarked) [Hydroxyzine hydrochloride]
CHIKV replicon % left (CHIKV replicon): 100.5%
SFV replication % left (surviving fraction, remaining percentage of SFV replication) (SFV-Rluc): 98.3%

CC(C)(C)NC[C@H](O)COc1cccc2c1CCCC2=O [I-Bunolol]
CHIKV replicon % left (CHIKV replicon): 105.4%
SFV replication % left (surviving fraction, remaining percentage of SFV replication) (SFV-Rluc): 59.6%

CC(C)Cc1ccc(CC(=O)O)cc1 [Ibufenac]
CHIKV replicon % left (CHIKV replicon): 78.9%
SFV replication % left (surviving fraction, remaining percentage of SFV replication) (SFV-Rluc): 102.2%

CC(C)Cc1ccc(C(C)C(=O)O)cc1 (centres unmarked) [Ibuprofen]
CHIKV replicon % left (CHIKV replicon): 100.5%
SFV replication % left (surviving fraction, remaining percentage of SFV replication) (SFV-Rluc): 92.8%

O[C@H]1[C@H](O)[C@@H](O)[C@H](O)[C@@H](O)[C@H]1O [Inositol]
CHIKV replicon % left (CHIKV replicon): 89.5%
SFV replication % left (surviving fraction, remaining percentage of SFV replication) (SFV-Rluc): 106.0%

CCC(NC(C)C)C(O)c1ccc(O)c(O)c1 (centres unmarked) [Isoetharine]
CHIKV replicon % left (CHIKV replicon): 100.4%
SFV replication % left (surviving fraction, remaining percentage of SFV replication) (SFV-Rluc): 90.7%

CC(C)OC(=O)c1cc(O)c(O)c(O)c1 [Isopropyl gallate]
CHIKV replicon % left (CHIKV replicon): 79.3%
SFV replication % left (surviving fraction, remaining percentage of SFV replication) (SFV-Rluc): 124.0%

COc1cc(-c2oc3cc(O)cc(O)c3c(=O)c2O)ccc1O [Isorhamnetin]
CHIKV replicon % left (CHIKV replicon): 19.3%
SFV replication % left (surviving fraction, remaining percentage of SFV replication) (SFV-Rluc): 28.9%

COc1cc2oc(=O)ccc2cc1O [Isoscopoletin]
CHIKV replicon % left (CHIKV replicon): 99.4%
SFV replication % left (surviving fraction, remaining percentage of SFV replication) (SFV-Rluc): 120.6%

O=c1c(O)c(-c2ccc(O)cc2)oc2cc(O)cc(O)c12 [Kaempferol]
CHIKV replicon % left (CHIKV replicon): 11.5%
SFV replication % left (surviving fraction, remaining percentage of SFV replication) (SFV-Rluc): 2.9%

COc1c2occc2c(OC)c2c(=O)cc(C)oc12 [Khellin]
CHIKV replicon % left (CHIKV replicon): 95.4%
SFV replication % left (surviving fraction, remaining percentage of SFV replication) (SFV-Rluc): 120.6%

C[C@](N)(Cc1ccc(O)c(O)c1)C(=O)O [L-Methyldopa]
CHIKV replicon % left (CHIKV replicon): 70.2%
SFV replication % left (surviving fraction, remaining percentage of SFV replication) (SFV-Rluc): 99.1%

CNC[C@H](O)c1cccc(O)c1.Cl [L-Phenylephrine hydrochloride]
CHIKV replicon % left (CHIKV replicon): 104.1%
SFV replication % left (surviving fraction, remaining percentage of SFV replication) (SFV-Rluc): 85.1%

O=C1O[C@H]([C@@H](O)CO)C(O)=C1O [L-ascorbic acid]
CHIKV replicon % left (CHIKV replicon): 106.1%
SFV replication % left (surviving fraction, remaining percentage of SFV replication) (SFV-Rluc): 81.4%

CC(CCc1ccccc1)NCC(O)c1ccc(O)c(C(N)=O)c1 (centres unmarked) [Labetalol hydrochloride]
CHIKV replicon % left (CHIKV replicon): 100.1%
SFV replication % left (surviving fraction, remaining percentage of SFV replication) (SFV-Rluc): 72.5%

CCCCCCCCCCCCOC(=O)c1cc(O)c(O)c(O)c1 [Lauryl gallate]
CHIKV replicon % left (CHIKV replicon): 6.1%
SFV replication % left (surviving fraction, remaining percentage of SFV replication) (SFV-Rluc): 12.3%

Oc1cc(O)c2c(c1)OC(c1ccc(O)c(O)c1)C(O)C2O (centres unmarked) [Leucocyanidin]
CHIKV replicon % left (CHIKV replicon): 84.1%
SFV replication % left (surviving fraction, remaining percentage of SFV replication) (SFV-Rluc): 136.3%

O=C1Nc2ccc(Cl)cc2C(c2ccccc2Cl)=NC1O (centres unmarked) [Lorazepam]
CHIKV replicon % left (CHIKV replicon): 104.9%
SFV replication % left (surviving fraction, remaining percentage of SFV replication) (SFV-Rluc): 98.2%

O=c1cc(-c2ccc(O)c(O)c2)oc2cc(O[C@@H]3O[C@H](CO)[C@@H](O)[C@H](O)[C@H]3O)cc(O)c12 [Luteolin-7-glucoside]
CHIKV replicon % left (CHIKV replicon): 54.4%
SFV replication % left (surviving fraction, remaining percentage of SFV replication) (SFV-Rluc): 17.8%

O=c1cc(-c2ccc(O)c(O)c2)oc2cc(O)cc(O)c12 [Luteolin]
CHIKV replicon % left (CHIKV replicon): 95.0%
SFV replication % left (surviving fraction, remaining percentage of SFV replication) (SFV-Rluc): 71.3%

COc1cc(-c2[o+]c3cc(O)cc(O[C@@H]4O[C@H](CO)[C@@H](O)[C@H](O)[C@H]4O)c3cc2O[C@@H]2O[C@H](CO)[C@@H](O)[C@H](O)[C@H]2O)cc(OC)c1O.[Cl-] [Malvin chloride]
CHIKV replicon % left (CHIKV replicon): 72.3%
SFV replication % left (surviving fraction, remaining percentage of SFV replication) (SFV-Rluc): 15.4%

CN1CCN=C(c2ccccc2)c2cc(Cl)ccc21 [Medazepam]
CHIKV replicon % left (CHIKV replicon): 101.7%
SFV replication % left (surviving fraction, remaining percentage of SFV replication) (SFV-Rluc): 87.5%

Cc1cccc(Nc2ccccc2C(=O)O)c1C [Mefenamic acid]
CHIKV replicon % left (CHIKV replicon): 99.4%
SFV replication % left (surviving fraction, remaining percentage of SFV replication) (SFV-Rluc): 103.5%

CC1=CC(=O)c2ccccc2C1=O [Menadione [2-Methyl-1,4-naphtoquinone]]
CHIKV replicon % left (CHIKV replicon): 31.1%
SFV replication % left (surviving fraction, remaining percentage of SFV replication) (SFV-Rluc): 28.3%

CNC(C)(C)Cc1ccccc1 [Mephentermine sulfate]
CHIKV replicon % left (CHIKV replicon): 70.1%
SFV replication % left (surviving fraction, remaining percentage of SFV replication) (SFV-Rluc): 81.8%

Cc1cccc(C)c1NC(=O)C1CCCCN1C (centres unmarked) [Mepivacaine hydrochloride]
CHIKV replicon % left (CHIKV replicon): 62.2%
SFV replication % left (surviving fraction, remaining percentage of SFV replication) (SFV-Rluc): 74.9%

CN1CCCCC1CCN1c2ccccc2Sc2ccc([S+](C)[O-])cc21 (centres unmarked) [Mesoridazine besylate]
CHIKV replicon % left (CHIKV replicon): 100.5%
SFV replication % left (surviving fraction, remaining percentage of SFV replication) (SFV-Rluc): 93.8%

Cc1c(N(C)CS(=O)(=O)[O-])c(=O)n(-c2ccccc2)n1C.[Na+] [Metamizol sodium]
CHIKV replicon % left (CHIKV replicon): 105.1%
SFV replication % left (surviving fraction, remaining percentage of SFV replication) (SFV-Rluc): 86.0%

C[C@H](N)[C@H](O)c1cccc(O)c1.O=C(O)C(O)C(O)C(=O)O [Metaraminol bitartrate salt]
CHIKV replicon % left (CHIKV replicon): 69.1%
SFV replication % left (surviving fraction, remaining percentage of SFV replication) (SFV-Rluc): 96.5%

COc1ccc(OC)c(C(O)C(C)N)c1 (centres unmarked) [Methoxamine hydrochloride]
CHIKV replicon % left (CHIKV replicon): 48.2%
SFV replication % left (surviving fraction, remaining percentage of SFV replication) (SFV-Rluc): 98.4%

COC(=O)c1cc(O)c(O)c(O)c1 [Methyl gallate]
CHIKV replicon % left (CHIKV replicon): 100.7%
SFV replication % left (surviving fraction, remaining percentage of SFV replication) (SFV-Rluc): 67.8%

COC(=O)c1ccc(O)cc1 [Methyl p-hydroxybenzoate]
CHIKV replicon % left (CHIKV replicon): 100.4%
SFV replication % left (surviving fraction, remaining percentage of SFV replication) (SFV-Rluc): 69.3%

C[N+]1(C)[C@@H]2CC[C@H]1C[C@@H](OC(=O)C(CO)c1ccccc1)C2 (some centres unmarked) [Methylatropine bromide]
CHIKV replicon % left (CHIKV replicon): 54.9%
SFV replication % left (surviving fraction, remaining percentage of SFV replication) (SFV-Rluc): 70.9%

Cc1cc(=O)oc2cc(O)ccc12 [Methylumbelliferone]
CHIKV replicon % left (CHIKV replicon): 21.1%
SFV replication % left (surviving fraction, remaining percentage of SFV replication) (SFV-Rluc): 12.0%

CC(=O)Oc1c(C)cc(OCC(O)CNC(C)C)c(C)c1C (centres unmarked) [Metipranolol]
CHIKV replicon % left (CHIKV replicon): 100.5%
SFV replication % left (surviving fraction, remaining percentage of SFV replication) (SFV-Rluc): 46.2%

COCCc1ccc(OCC(O)CNC(C)C)cc1 (centres unmarked) [Metoprolol tartrate]
CHIKV replicon % left (CHIKV replicon): 78.2%
SFV replication % left (surviving fraction, remaining percentage of SFV replication) (SFV-Rluc): 65.7%

Cc1ncc([N+](=O)[O-])n1CCO [Metronidazole]
CHIKV replicon % left (CHIKV replicon): 89.2%
SFV replication % left (surviving fraction, remaining percentage of SFV replication) (SFV-Rluc): 69.2%

O.O.O=c1c(O)c(-c2ccc(O)cc2O)oc2cc(O)cc(O)c12 [Morin dihydrate]
CHIKV replicon % left (CHIKV replicon): 102.6%
SFV replication % left (surviving fraction, remaining percentage of SFV replication) (SFV-Rluc): 82.9%

O=c1c(O)c(-c2cc(O)c(O)c(O)c2)oc2cc(O)cc(O)c12 [Myricetin]
CHIKV replicon % left (CHIKV replicon): 49.1%
SFV replication % left (surviving fraction, remaining percentage of SFV replication) (SFV-Rluc): 2.0%

CC(=O)Nc1ccc(S(N)(=O)=O)cc1 [N-Acetylsulfanilamide]
CHIKV replicon % left (CHIKV replicon): 104.1%
SFV replication % left (surviving fraction, remaining percentage of SFV replication) (SFV-Rluc): 63.2%

CC(CN1c2ccccc2Sc2ccccc21)[N+](C)(C)CCO (centres unmarked) [N-Hydroxyethylpromethazine chloride]
CHIKV replicon % left (CHIKV replicon): 85.9%
SFV replication % left (surviving fraction, remaining percentage of SFV replication) (SFV-Rluc): 102.2%

Cc1ccc(C(=O)NS(=O)(=O)c2ccc(N)cc2)cc1C [N-Sulfanilyl-3,4-xylamide]
CHIKV replicon % left (CHIKV replicon): 100.7%
SFV replication % left (surviving fraction, remaining percentage of SFV replication) (SFV-Rluc): 72.0%

CC(C)(C)NCC(O)COc1cccc2c1CC(O)C(O)C2 (centres unmarked) [Nadolol]
CHIKV replicon % left (CHIKV replicon): 63.3%
SFV replication % left (surviving fraction, remaining percentage of SFV replication) (SFV-Rluc): 60.5%

CCn1cc(C(=O)O)c(=O)c2ccc(C)nc21 [Nalidixic acid]
CHIKV replicon % left (CHIKV replicon): 100.4%
SFV replication % left (surviving fraction, remaining percentage of SFV replication) (SFV-Rluc): 80.4%

From PMC3242765, “Inhibitors of Alphavirus Entry and Replication Identified with a Stable Chikungunya Replicon Cell Line and Virus-Based Assays” (PLoS ONE, 2011)
